Values quoted from earlier work as cited in PubChem BioAssay AID1259409 (Chemical Carcinogenesis Research Information System (CCRIS), 2018).

System: rodent chemically induced tumor inhibition, incidence and multiplicity
Assay: CCRIS tumor inhibitor studies
Conditions: Route [Inhibitor]: ORAL, Species: RAT; for tumour outcome (control, treated, inhibition, significance): Promoter: NONE USED

CC(=O)OC/C=C(C)/C=C/C=C(C)/C=C/C1=C(C)CCCC1(C)C
outcome (Carcinogen: N-BIS-(2-HYDROXYPROPYL)NITROSAMINE [53609-64-6], Dose [Inhibitor]: 0, 0.1% IN DIET 4 WK BEGINNING 1 WK POST CARCINOGEN DOSE (STUDY DURATION: 5 WK), Strain/Sex: F344/DUCRJ/MALE, Target Tissue: Type of Lesion: THYROID GLAND: ADENOMATOUS GROWTH PATTERN, Dose [Carcinogen]: 2800 MG/KG BW ONCE (STUDY DURATION: 5 WK), Promoter: NONE): 0%, 0%, 0%, not significant
tumour outcome (control, treated, inhibition, significance) (Carcinogen: N-METHYL-N-NITROSOUREA, 684-93-5, Dose [Inhibitor]: 0, 328 MG/KG DIET FOR 88 D BEGINNING 2 D POST CARCINOGEN DOSE (STUDY DURATION: 90 D), Strain/Sex: SPRAGUE-DAWLEY/FEMALE, Target Tissue: Type of Lesion: MAMMARY GLAND: ADENOCARCINOMA, Dose [Carcinogen]: 45 MG/KG BW ONCE): 100%, 73%, 27%, p<0.05
tumour outcome (control, treated, inhibition, significance) (Carcinogen: N-METHYL-N-NITROSOUREA, 684-93-5, Dose [Inhibitor]: 0, 328 MG/KG OF DIET BEGINNING 2 D POST CARCINOGEN DOSE AND CONTINUING FOR DURATION OF STUDY (STUDY DURATION: 90 D), Strain/Sex: SPRAGUE-DAWLEY/FEMALE, Target Tissue: Type of Lesion: MAMMARY GLAND: ADENOCARCINOMA, Dose [Carcinogen]: 45 MG/KG BW ONCE AT 50 D OF AGE): 100%, 80%, 20%, not calculated
tumour outcome (control, treated, inhibition, significance) (Carcinogen: N-METHYL-N-NITROSOUREA, 684-93-5, Dose [Inhibitor]: 0, 328 MG/KG OF DIET FOR DURATION OF STUDY BEGINNING 1 WK PRIOR TO CARCINOGEN TREATMENT (STUDY DURATION: 117 D), Strain/Sex: SPRAGUE-DAWLEY /FEMALE, Target Tissue: Type of Lesion: MAMMARY GLAND: ADENOCARCINOMA, Dose [Carcinogen]: 50 MG/KG BW ONCE): 100%, 84%, 16%, not significant
tumour outcome (control, treated, inhibition, significance) (Carcinogen: N-METHYL-N-NITROSOUREA, 684-93-5, Dose [Inhibitor]: 0.8 MMOL/KG DIET DAILY STARTING 12 D AFTER CARCINOGEN TREATMENT THROUGH ABOUT 8 MO AFTER FIRST CARCINOGEN DOSE (STUDY DU, Strain/Sex: F344/MALE, Target Tissue: Type of Lesion: COLON: ADENOCARCINOMA, Dose [Carcinogen]: 2.5 MG 1/WK FOR 2 WK): 5/39 (13%), 4/29 (14%), -8%, not significant
tumour outcome (control, treated, inhibition, significance) (Carcinogen: N-METHYL-N-NITROSOUREA, 684-93-5, Dose [Inhibitor]: 0.8 MMOL/KG DIET DAILY STARTING 12 D AFTER CARCINOGEN TREATMENT THROUGH ABOUT 8 MO AFTER FIRST CARCINOGEN DOSE (STUDY DU, Strain/Sex: F344/MALE, Target Tissue: Type of Lesion: COLON: ADENOMA, Dose [Carcinogen]: 2.5 MG 1/WK FOR 2 WK): 16/39 (41%), 9/29 (31%), 24%, not significant
tumour outcome (control, treated, inhibition, significance) (Carcinogen: N-METHYL-N-NITROSOUREA, 684-93-5, Dose [Inhibitor]: 1.0 MM IN DIET DAILY (328 MG/KG DIET) STARTING D 60 OF AGE UNTIL END OF STUDY (STUDY DURATION: 4 MO), Strain/Sex: SPRAGUE-DAWLEY/FEMALE, Target Tissue: Type of Lesion: MAMMARY GLAND: CARCINOMA, Dose [Carcinogen]: 2.5 MG/100 G BODY WEIGHT IN 0.9% NACL SOLUTION ADMINISTERED AT D 50 AND 57 OF AGE): 87%, 54%, 38%, p<0.01
tumour outcome (control, treated, inhibition, significance) (Carcinogen: N-METHYL-N-NITROSOUREA, 684-93-5, Dose [Inhibitor]: 1 MMOL/KG DIET DAILY STARTING 3 D AFTER LAST CARCINOGEN DOSE THROUGH END OF STUDY (STUDY DURATION: 129 D), Strain/Sex: SPRAGUE-DAWLEY/FEMALE, Target Tissue: Type of Lesion: MAMMARY GLAND: TUMOR, Dose [Carcinogen]: 50 MG/KG BW AT BOTH 50 AND 57 D OF AGE): 17/17 (100%), 12/18 (67%), 33%, p<0.001
tumour outcome (control, treated, inhibition, significance) (Carcinogen: N-METHYL-N-NITROSOUREA, 684-93-5, Dose [Inhibitor]: 1 MMOL/KG DIET DAILY STARTING 3 D AFTER LAST CARCINOGEN DOSE THROUGH END OF STUDY (STUDY DURATION: 182 D), Strain/Sex: SPRAGUE-DAWLEY/FEMALE, Target Tissue: Type of Lesion: MAMMARY GLAND: TUMOR, Dose [Carcinogen]: 15 MG/KG BW AT BOTH 50 AND 57 D OF AGE): 12/40 (30%), 5/39 (13%), 57%, not significant
tumour outcome (control, treated, inhibition, significance) (Carcinogen: N-METHYL-N-NITROSOUREA, 684-93-5, Dose [Inhibitor]: 2 MMOL/KG DIET DAILY STARTING 3 D AFTER LAST CARCINOGEN DOSE THROUGH END OF STUDY (STUDY DURATION: 129 D), Strain/Sex: SPRAGUE-DAWLEY/FEMALE, Target Tissue: Type of Lesion: MAMMARY GLAND: TUMOR, Dose [Carcinogen]: 50 MG/KG BW AT BOTH 50 AND 57 D OF AGE): 17/17 (100%), 2/16 (13%), 87%, p<0.001
tumour outcome (control, treated, inhibition, significance) (Carcinogen: N-METHYL-N-NITROSOUREA, 684-93-5, Dose [Inhibitor]: 2 MMOL/KG DIET DAILY STARTING 3 D AFTER LAST CARCINOGEN DOSE THROUGH END OF STUDY (STUDY DURATION: 182 D), Strain/Sex: SPRAGUE-DAWLEY/FEMALE, Target Tissue: Type of Lesion: MAMMARY GLAND: TUMOR, Dose [Carcinogen]: 15 MG/KG BW AT BOTH 50 AND 57 D OF AGE): 12/40 (30%), 0/40 (0%), 100%, p<0.001
tumour outcome (control, treated, inhibition, significance) (Carcinogen: N-METHYL-N-NITROSOUREA, 684-93-5, Dose [Inhibitor]: 300 MG/KG OF DIET DAILY STARTING 7 D AFTER CARCINOGEN TREATMENT AND CONTINUING FOR DURATION OF STUDY (STUDY DURATION: 13, Strain/Sex: SPRAGUE-DAWLEY/FEMALE, Target Tissue: Type of Lesion: MAMMARY GLAND: ADENOCARCINOMA, Dose [Carcinogen]: 50 MG/KG BW IN 0.9% SALINE ONCE AT 50 D OF AGE): 25/25 (100%), 23/25 (92%), 8%, not significant
tumour outcome (control, treated, inhibition, significance) (Carcinogen: N-METHYL-N-NITROSOUREA, 684-93-5, Dose [Inhibitor]: 328 MG/KG DIET DAILY FOR 4 MO STARTING 10 D AFTER START OF CARCINOGEN TREATMENT AND CONTINUING FOR DURATION OF STUDY (ST, Strain/Sex: SPRAGUE-DAWLEY/FEMALE, Target Tissue: Type of Lesion: MAMMARY GLAND: ADENOCARCINOMA, Dose [Carcinogen]: 2.5 MG/100 G BW IN 0.9% SALINE AND ACIDIFIED (PH 4 TO 5) WITH ACETIC ACID AT AGES 50 AND 57 D): 88%, 53%, 40%, p<0.01
tumour outcome (control, treated, inhibition, significance) (Carcinogen: N-METHYL-N-NITROSOUREA, 684-93-5, Dose [Inhibitor]: 328 MG/KG IN DIET BEGINNING AT D 60 (STUDY DURATION: 129 D), Strain/Sex: SPRAGUE-DAWLEY/FEMALE, Target Tissue: Type of Lesion: MAMMARY GLAND: TUMOR, Dose [Carcinogen]: 2.5 MG/100 G AT 50 AND 57 D OF AGE): 22/30 (73%), 11/30 (37%), 49%, p<0.005
tumour outcome (control, treated, inhibition, significance) (Carcinogen: N-METHYL-N-NITROSOUREA, 684-93-5, Dose [Inhibitor]: 328 MG/KG IN DIET BEGINNING AT D 60 (STUDY DURATION: 175 D), Strain/Sex: SPRAGUE-DAWLEY/FEMALE, Target Tissue: Type of Lesion: MAMMARY GLAND: TUMOR, Dose [Carcinogen]: 1.25 MG/100 G BODY WEIGHT IN 0.9% NACL SOLUTION ADMINISTERED AT D 50 AND 57 OF AGE): 8/30 (27%), 3/30 (10%), 63%, p<0.01
tumour outcome (control, treated, inhibition, significance) (Dose [Inhibitor]: 3 UMOL/G DIET, Strain/Sex: SPRAGUE-DAWLEY/FEMALE, Target Tissue: Type of Lesion: LIVER: TUMOR, Dose [Carcinogen]: 1 PPM IN DIET): 76%, 79%, -4%, not calculated
tumour outcome (control, treated, inhibition, significance) (Dose [Inhibitor]: 3 UMOL/G DIET, Strain/Sex: SPRAGUE-DAWLEY/MALE, Target Tissue: Type of Lesion: LIVER: TUMOR, Dose [Carcinogen]: 1 PPM IN DIET): 89%, 88%, 1%, not calculated
tumour outcome (control, treated, inhibition, significance) (Dose [Inhibitor]: 30 UMOL/G DIET, Strain/Sex: SPRAGUE-DAWLEY/FEMALE, Target Tissue: Type of Lesion: LIVER: TUMOR, Dose [Carcinogen]: 1 PPM IN DIET): 76%, 84%, -11%, not calculated
tumour outcome (control, treated, inhibition, significance) (Dose [Inhibitor]: 30 UMOL/G DIET, Strain/Sex: SPRAGUE-DAWLEY/MALE, Target Tissue: Type of Lesion: LIVER: TUMOR, Dose [Carcinogen]: 1 PPM IN DIET): 89%, 92%, -3%, not calculated
